# Structures can show the parent of a compound that is named as a salt.
# Biological target: T1, c-Met (Homo sapiens, UniProt P08581)
# T1 construct: c-Met cytoplasmic domain (amino acids 969 to C-terminus); made in house; host or cells: baculovirus / Sf9 cells
# Test: Inhibition of c-Met kinase (33P-ATP filter assay)
# Type: biochemical
# Settings: GST-c-Met cytoplasmic domain, poly(EY) substrate; read-out: IC50 range class, inhibition of c-Met
# Source text: Compounds of the formula I, for example, are able to inhibit c-Met kinase as mentioned already in the introduction. Using the sequence disclosed by Chan et al. (see Chan, A M-L, King H W S, Tempest P R, Deakin E A, Cooper C S, Brookes P. Primary structure of the met protein tyrosine kinase domain. Oncogene 1987; 12:229-233), a construct with this sequence, after hooking to a GST tag, was cloned into baculovirus and expressed in Sf9 cells. After partial purification by affinity chromatography on GST agarose resulting in a >90% pure preparation (SDS-PAGE), the kinase activity of this construct is used for inhibition assays using the compounds of formula I. The quality of the purified kinase preparations is highly reproducible: 9 batches of c-Met gives an average specific activity of 32.3±5.7 nmol/mg·min.
# For inhibition studies, the following experimental protocol is used:
# In vitro protein kinase assays are performed in 96-well plates. The amount of enzyme used in kinase assays and the incubation time for the kinase reaction are adjusted so that maximally 25% (in routine experiments <10%) of the substrate ATP are consumed.
# Test compounds of the formula I are first dissolved in DMSO at a concentration of 1-10 mM (stock solution) and then further diluted with water/3% DMSO as required so that the final DMSO concentration in the assay is 1%.
# The assay components are mixed in the following order: • 10 μl 3×compound (in 3% DMSO) • 10 μl 3×assay mix (MgCl2/MnCl2/ATP/^33P-ATP/poly(EY)) • 10 μl 3×enzyme dilution
# Assays are incubated for 15 min (in special cases up to 60 min) at ambient temperature, reactions terminated by addition of 10 μl 0.25 M EDTA pH 7, then 20 μl transferred to a Millipore Immobilon^P membrane (previously soaked for 5 min with methanol, rinsed with water, then soaked for 5 min with 0.5% H3PO4 and mounted on vacuum manifold) with disconnected vacuum source. After spotting all samples, vacuum is connected and each well rinsed with 200 μl 0.5% H3PO4. Membranes are removed and washed 4× on shaker with 0.5% H3PO4, once with methanol. Membranes are counted after drying at ambient temperature, mounting in Packard TopCount 96-well frame, and addition of 10 μl/well of the scintillator Microscint™ (Packard).
# IC50 values are calculated by logarithmic regression analysis of the percentage inhibition of each compound at 4 concentrations (usually 3- or 10-fold dilution series starting at 10 μM). In each experiment, the actual inhibition by reference compound is used for normalization of IC50 values to the basis of an average value of the reference inhibitor: Normalized IC50=measured IC50·average ref. IC50/measured ref. IC50 Example: • Reference inhibitor in experiment 0.4 μM, average 0.3 μM • Test compound in experiment 1.0 μM, normalization: 1.0·0.3/0.4=0.75 μM
# For example, staurosporine or a synthetic staurosporine derivative are used as reference compounds.
# T1 sequence (P08581 969-1390 limits assumed): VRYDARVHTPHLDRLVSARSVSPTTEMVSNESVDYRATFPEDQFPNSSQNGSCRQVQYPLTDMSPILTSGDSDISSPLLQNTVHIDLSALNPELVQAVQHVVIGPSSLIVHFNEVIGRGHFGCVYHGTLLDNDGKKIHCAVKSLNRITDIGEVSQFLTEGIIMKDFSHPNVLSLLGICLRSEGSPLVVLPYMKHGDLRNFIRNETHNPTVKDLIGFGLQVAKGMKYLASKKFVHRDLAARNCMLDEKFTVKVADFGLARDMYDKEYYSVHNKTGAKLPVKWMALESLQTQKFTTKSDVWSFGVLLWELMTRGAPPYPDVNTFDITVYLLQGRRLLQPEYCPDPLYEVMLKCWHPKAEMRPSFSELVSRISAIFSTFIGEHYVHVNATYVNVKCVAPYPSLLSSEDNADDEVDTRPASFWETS
row,SMILES,IC50
1,"O=c1n(Cc2ccoc2)c2cnc3ccc(Cl)cc3c2n1-c1ccccc1Cl [Example 133, 8-Chloro-1-(2-chloro-phenyl)-3-(3-furyl-methyl)-1,3-dihydro-imidazo[4,5-c]quinolin-2-one]",≤ 500 nM
2,"Clc1ccc2ncc3ncn(-c4ccccc4Cl)c3c2c1 [Example 25, 8-Chloro-1-(2-chloro-phenyl)-1H-imidazo[4,5-c]quinoline]",≤ 500 nM
3,"N=C(N)Cc1nc2cnc3ccc(Cl)cc3c2n1-c1ccccc1Cl [Example 88, 2-[8-Chloro-1-(2-chloro-phenyl)-1H-imidazo[4,5-c]quinolin-2-yl]-acetamidine]",≤ 500 nM
4,"O=c1[nH]c2cnc3ccc(Cl)cc3c2n1-c1ccccc1Cl [Example 92, 8-Chloro-1-(2-chloro-phenyl)-1,3-dihydro-imidazo[4,5-c]quinolin-2-one]",500 to 1000 nM
5,"N#Cc1nc2cnc3ccc(Cl)cc3c2n1-c1ccccc1Cl [Example 84, 8-Chloro-1-(2-chloro-phenyl)-1H-imidazo[4,5-c]quinoline-2-carbonitrile]",≤ 500 nM
6,"N/C(Cc1nc2cnc3ccc(Cl)cc3c2n1-c1ccccc1Cl)=N/O [Example 87, 2-[8-Chloro-1-(2-chloro-phenyl)-1H-imidazo[4,5-c]quinolin-2-yl]-N-hydroxy-acetamidine]",500 to 1000 nM
7,"O=c1n(-c2cccc(Cl)c2)c2cnc3ccc(Br)cc3c2n1-c1ccccc1Cl [Example 102, 8-Bromo-1-(2-chloro-phenyl)-3-(3-chloro-phenyl)-1,3-dihydro-imidazo[4,5-c]quinolin-2-one]",1000 to 2000 nM

# Test system: not given
# Test: not given
# Settings: not given
row,SMILES,melting point
1,"[O-][n+]1cc2ncn(-c3ccccc3Cl)c2c2cc(Cl)ccc21 [Example 71, 8-Chloro-1-(2-chloro-phenyl)-1H-imidazo[4,5-c]quinoline 5-oxide]",247 to 250 °C
2,"Fc1ccc2ncc3ncn(-c4ccccc4F)c3c2c1 [Example 19, 8-Fluoro-1-(2-fluoro-phenyl)-1H-imidazo[4,5-c]quinoline]",162 to 163 °C
3,"NCc1cccc(-n2cnc3cnc4ccc(Cl)cc4c32)c1 [Example 42, 3-(8-Chloro-imidazo[4,5-c]quinolin-1-yl)-benzylamine]",148 to 149 °C
4,"Nc1nc2ccc(Cl)cc2c2c1ncn2-c1ccccc1Cl [Example 73, 8-Chloro-1-(2-chloro-phenyl)-1H-imidazo[4,5c]-quinolin-4-ylamine]",262 to 263 °C
5,"NCCc1ccc(-n2cnc3cnc4ccc(Cl)cc4c32)cc1 [Example 43, 2-[4-(8-Chloro-imidazo[4,5-c]quinolin-1-yl)-phenyl]-ethylamine]",140 to 141 °C
6,"N/C(Cc1nc2cnc3ccc(Cl)cc3c2n1-c1ccccc1Cl)=N/O (as salt: sodium) [Example 87, 2-[8-Chloro-1-(2-chloro-phenyl)-1H-imidazo[4,5-c]quinolin-2-yl]-N-hydroxy-acetamidine]",114 °C
7,"NC(=O)c1nc2cnc3ccc(Cl)cc3c2n1-c1ccccc1Cl [Example 83, 8-Chloro-1-(2-chloro-phenyl)-1H-imidazo[4,5-c]quinoline-2-carboxylic acid amide]",194 to 195 °C
8,"N/C(Cc1ccccc1-n1cnc2cnc3ccc(-c4ccccc4)cc3c21)=N/O [Example 68, N-Hydroxy-2-[2-(8-phenyl-imidazo[4,5-c]quinolin-1-yl)-phenyl]-acetamidine]",253 to 254 °C
9,"Fc1ccc(-n2cnc3cnc4ccccc4c32)cc1 [Example 1, 1-(4-Fluoro-phenyl)-1H-imidazo[4,5-c]quinoline]",161 to 162 °C
10,"COc1ccc2ncc3ncn(-c4ccccc4Cl)c3c2c1 [Example 44, 1-(2-Chloro-phenyl)-8-methoxy-1H-imidazo[4,5-c]quinoline]",202 to 205 °C
11,"Clc1ccc2ncc3ncn(-c4ccccc4)c3c2c1 [Example 23, 8-Chloro-1-phenyl-1H-imidazo[4,5-c]quinoline]",240 to 242 °C
12,"N/C(=N\O)c1ccccc1-n1cnc2cnc3ccc(-c4ccccc4)cc3c21 [Example 67, N-Hydroxy-2-(8-phenyl-imidazo[4,5-c]quinolin-1-yl)-benzamidine]",249 to 251 °C
13,"Brc1ccccc1-n1cnc2cnc3ccc(-c4ccccc4)cc3c21 [Example 53, 1-(2-Bromo-phenyl)-8-Phenyl-1H-imidazo[4,5-c]quinoline]",128 to 129 °C
14,"Clc1ccc2nc(Cl)c3ncn(-c4ccccc4Cl)c3c2c1 [Example 75, 4,8-Dichloro-1-(2-chloro-phenyl)-1H-imidazo[4,5-c]quinoline]",194 to 200 °C
15,"CCc1ccc2ncc3ncn(-c4ccccc4Cl)c3c2c1 [Example 49, 1-(2-Chloro-phenyl)-ethyl-1H-imidazo[4,5-c]quinoline]",156 to 158 °C
16,"Fc1ccc(-n2cnc3cnc4cc(Cl)ccc4c32)cc1 [Example 15, 7-Chloro-1-(4-fluoro-phenyl)-1H-imidazo[4,5-c]quinoline]",273 to 274 °C
17,"CNc1nc2ccc(Cl)cc2c2c1ncn2-c1ccccc1Cl [Example 76, [8-Chloro-1-(2-chloro-phenyl)-1H-imidazo[4,5-c]quinolin-4-yl]-methyl-amine]",210 to 212 °C
18,"Cc1nc2cnc3ccc(Cl)cc3c2n1-c1ccccc1Cl [Example 136, 8-Chloro-1-(2-chloro-phenyl)-2-methyl-1H-imidazo[4,5-c]quinoline]",177.5 °C
19,"N#Cc1nc2cnc3ccc(Cl)cc3c2n1-c1ccccc1Cl [Example 84, 8-Chloro-1-(2-chloro-phenyl)-1H-imidazo[4,5-c]quinoline-2-carbonitrile]",242 to 244 °C
20,"N=C(N)c1ccccc1-n1cnc2cnc3ccc(-c4ccccc4)cc3c21 [Example 69, 2-(8-Phenyl-imidazo-4,5-quinolin-1-yl)-benzamidine]",284 to 285 °C
21,"Clc1ccc2ncc3nc(Br)n(-c4ccccc4Cl)c3c2c1 [Example 82, 2-Bromo-8-chloro-1-(2-chloro-phenyl)-1H-imidazo[4,5-c]quinoline]",183 to 192 °C
22,"N#Cc1nc2ccc(Cl)cc2c2c1ncn2-c1ccccc1Cl [Example 74, 8-Chloro-1-(2-chloro-phenyl)-1H-imidazo[4,5-c]quinoline-4-carbonitrile]",248 to 250 °C
23,"O=C(Nc1nc2ccc(Cl)cc2c2c1ncn2-c1ccccc1Cl)c1ccccc1 [Example 72, N-[8-Chloro-1-(2-chloro-phenyl)-1H-imidazo[4,5-c]quinolin-4-yl]-benzamide]",255 to 258 °C
24,"N=C(N)Cc1ccccc1-n1cnc2cnc3ccc(-c4ccccc4)cc3c21 [Example 70, 2-[2-(8-Phenyl-imidazo[4,5-c]quinolin-1-yl)-phenyl]-acetamidine]",261 to 263 °C
25,"N/C(=N\O)c1nc2cnc3ccc(Cl)cc3c2n1-c1ccccc1Cl [Example 86, 8-Chloro-1-(2-chloro-phenyl)-N-hydroxy-1H-imidazo[4,5-c]quinoline-2-carboxamidine]",265 to 267 °C

# — patent US7998972B2, “1H-imidazo[4,5-c]quinoline derivatives in the treatment of protein kinase dependent diseases” (Novartis AG, priority 2002, dated 2011)
